# According to patent US10544092B2 (priority 2015, dated 2020):
# Columns and labels:
# Assay type in all cases: in vivo
# [1] = system: soft rot of chinese cabbage; assay: control of soft rot of chinese cabbage (cut leaves); settings: dosage 400 mg/L, 48 hours
# Experimental: Soft rot of chinese cabbage: Chinese cabbage leaves are cut into 2 cm square and placed on the double filter paper in a petri dish. The testing compound is dissolved in DMF and diluted with water to the desired concentration. The testing solution is sprayed onto the surface of the cabbage leaf and dried in a fume hood. The surface of cabbage leaf is pierced using inoculation needle. A spore suspension (5 μl) of the chinese cabbage soft rot bacteria in the stable growth phase is inoculated onto the breakage of leaves, disease development is allowed to progress in a growth cabinet under dark condition for 48 hours. The activity of the compound is evaluated based on germination or growth of control treatment.
# [2] = system: melon bacterial fruit blotch; assay: control of melon bacterial fruit blotch (seed soaking); settings: dosage 800 mg/L, after 2 weeks
# Experimental: Melon bacterial fruit blotch: The testing compound is dissolved in a small amount of DMF and diluted with water to the desired concentration. The pathogenic bacteria in the stable growth phase is mixed with the testing solution. After melon seeds (accelerating germination) soaked in the solution containing pathogenic bacteria and compound for 0.5 hour, the seeds are sown in earthworm soil cup and then transferred into a greenhouse to allow disease to develop. After 2 weeks, The activity of the compound is evaluated based on germination or growth of control treatment
# [3] = system: bacterial leaf streak of rice (Xanthomonas oryzae pv. oryzicola); settings: field trial; for Disease control (%) repeat I / Disease control (%) repeat II / Disease control (%) repeatIII: 400 g a.i./hm^2, a week after 3 spray applications; for Disease control (%) average: 400 g a.i./hm^2, average of repeats I-III
Compound,control against soft rot of chinese cabbage [1],control against melon bacterial fruit blotch [2],Disease control (%) repeat I [3],Disease control (%) repeat II [3],Disease control (%) repeatIII [3],Disease control (%) average [3]
N#CC(C#N)=NOCc1ccc(Cl)c(Cl)c1 [Compound 59],100%,100%,56.96%,58.37%,51.24%,55.52%
COc1ccc(CON=C(C#N)C#N)cc1 [Compound 19],100%,–,–,–,–,–
N#CC(C#N)=NOCc1ccc(C#N)cc1 [Compound 37],100%,–,–,–,–,–
N#CC(C#N)=NOCc1cccc(Br)c1 [Compound 9],100%,100%,–,–,–,–
N#CC(C#N)=NOCc1ccc([N+](=O)[O-])cc1 [Compound 34],100%,–,–,–,–,–
N#CC(C#N)=NOCc1cccc(C#N)c1 [Compound 36],100%,–,–,–,–,–
thiazole zinc [reference compound],–,–,39.21%,37.24%,37.88%,38.11%
N#CC(C#N)=NOCc1ccc(F)c(F)c1 [Compound 83],100%,100%,–,–,–,–
